Earlier results on 1 compound are cited in patent US20220296560A1, “PHARMACEUTICAL COMPOSITION FOR ORAL ADMINISTRATION IN POWDER FORMULATION CONTAINING ANTIVIRAL AGENT” (DAE HWA PHARMA. CO., LTD., priority 2019, published 2022).

The structures appear in SMILES notation. Read-outs that look alike come from different tables or passages of the source.

For the series the following is noted: in vivo.

Take `CC(=O)N[C@H]1[C@H]([C@H](O)[C@H](O)CO)OC(C(=O)O)=C[C@@H]1N=C(N)N` [zanamivir, 5-(acetylamino)-4-{[amino(imino)methyl]amino}-2,6-anhydro-3,4,5-trideoxy-D-glycero-D-galacto-non-2-enonic acid]: the bioavailability reads like this: (inhaled or intranasal) 4-17%; (po) “about 2%”.
